Counter-ions that a name gives are not always drawn. Like-named read-outs stand apart in the source and are kept apart here.
Assays:
[1] = system: SARS-CoV-2 in human airway epithelial cells at air-liquid interface; format: cell-based, SARS-CoV-2_B.1.1.7
[2] = system: SARS-CoV-2 in Mucilair human airway epithelia; format: cell-based, SARS-CoV-2 BavPat1/2020
[3] = system: SARS-CoV-2 in human airway epithelial cells at air-liquid interface; parameters: method as in earlier work; settings: 4 dpi, cited from earlier work

In the case of Nc1c(Br)cc(Br)cc1CN[C@H]1CC[C@H](O)CC1 [Ambroxol, ambroxol], the “Log Viral Load Reduction (Compared to Virus Control and Background), HAEC/ALI (alpha variant)” value [1] is reported as “–1.0 (+-0.71) log”.
With CCN(CC)Cc1cc(Nc2ccnc3cc(Cl)ccc23)ccc1O [Amodiaquine, amodiaquine] the “Log Viral titer Reduction (Compared to Virus Control), HAEC/ALI (BavPat variant)” value ([2]; 10 uM, […]) was -0.51 (+-1.60) log.
In the case of COC(=O)N[C@H](C(=O)N[C@@H](Cc1ccccc1)[C@@H](O)CN(Cc1ccc(-c2ccccn2)cc1)NC(=O)[C@@H](NC(=O)OC)C(C)(C)C)C(C)(C)C [Atazanavir, atazanavir], the “Log Viral titer Reduction (Compared to Virus Control), HAEC/ALI (BavPat variant)” value ([2]; 10 uM, […]) is reported as 0.09 (+-0.64) log.
With CN(C)C(=O)COC(=O)Cc1ccc(OC(=O)c2ccc(NC(=N)N)cc2)cc1 [Camostat mesylate, camostat mesylate] the “Activity, HAEC/ALI (alpha variant)” value [1] was “YES” and the “Log Viral Load Reduction (Compared to Virus Control and Background), HAEC/ALI (alpha variant)” value [1] was over 1.7 log.
In the case of COc1ccc2cc1Oc1ccc(cc1)C[C@H]1c3c(cc4c(c3Oc3cc5c(cc3OC)CCN(C)[C@@H]5C2)OCO4)CCN1C [Cepharanthine, cepharanthine], the “Log Viral Load Reduction (Compared to Virus Control and Background), HAEC/ALI (alpha variant)” value [1] is reported as 0.92 (+-0.97) log.
With COc1cc2c(c(OC)c1OC)-c1ccc(OC)c(=O)cc1[C@@H](NC(C)=O)CC2 [Colchicine, colchicine] the “Log Viral Load Reduction (Compared to Virus Control and Background), HAEC/ALI (alpha variant)” value [1] was -0.2 (+-0.44) log.
For COC(=O)N[C@H](C(=O)N1CCC[C@H]1c1nc(-c2ccc(-c3ccc(-c4c[nH]c([C@@H]5CCCN5C(=O)[C@@H](NC(=O)OC)C(C)C)n4)cc3)cc2)c[nH]1)C(C)C [Daclatasvir, daclatasvir], the “Log Viral Load Reduction (Compared to Virus Control and Background), HAEC/ALI (alpha variant)” value ([1]; 10 uM, […]) was 0.17 (+-0.84) log.
For O=c1nc(NO)ccn1[C@@H]1O[C@H](CO)[C@@H](O)[C@H]1O [EIDD-1931], the “Log Viral Load Reduction (Compared to Virus Control and Background), HAEC/ALI (alpha variant)” value [1] was “+Inc” and the “Log Viral Load Reduction (Compared to Virus Control and Background), HAEC/ALI (alpha variant)” value ([1]; 10 uM, […]) was “+Inc”.
In the case of NC(=O)c1nc(F)c[nH]c1=O [Favipiravir, favipiravir], the “Log Viral Load Reduction (Compared to Virus Control and Background), HAEC/ALI (alpha variant)” value ([1]; 300 uM, […]) is reported as -0.4 (+/-0.2) log.
In the case of CNCCC(Oc1ccc(C(F)(F)F)cc1)c1ccccc1 (stereo not shown) [Fluoxetine, fluoxetine], the “Log Viral titer Reduction (Compared to Virus Control), HAEC/ALI (BavPat variant)” value [2] is reported as 0.68 (+-0.11) and the “Log Viral Load Reduction (Compared to Virus Control and Background), HAEC/ALI (alpha variant)” value [1] is reported as -0.12 (+-0.10).
For COCCCC/C(=N\OCCN)c1ccc(C(F)(F)F)cc1 [Fluvoxamine maleate, fluvoxamine maleate], the “Log Viral titer Reduction (Compared to Virus Control), HAEC/ALI (BavPat variant)” value ([2]; 10 uM, […]) was 0.2(+-0.1) log and the “Log Viral Load Reduction (Compared to Virus Control and Background), HAEC/ALI (alpha variant)” value ([1]; 10 uM, […]) was “+Inc”.
In the case of OC(c1cc(C(F)(F)F)nc2c(C(F)(F)F)cccc12)C1CCCCN1 (stereo not shown) [Mefloquine, mefloquine], the “Log Viral Load Reduction (Compared to Virus Control and Background), HAEC/ALI (alpha variant)” value ([1]; 10 uM, […]) is reported as 0.45 (+-2.02) log.
For CC(C)C(=O)OC[C@H]1O[C@@H](n2ccc(NO)nc2=O)[C@H](O)[C@@H]1O [Molnupiravir, molnupiravir], the “Activity, HAEC/ALI (BavPat variant)” value [2] was “YES”, the “Log Viral titer Reduction (Compared to Virus Control), HAEC/ALI (BavPat variant)” value ([2]; 0.3 uM, […]) was -0.39 (+-0.48) log and the “Log Viral Load Reduction (Compared to Virus Control and Background), HAEC/ALI (alpha variant)” value [1] was 1.9 (+-1.3) log. The “Activity, HAEC/ALI (alpha variant)” value ([1]; 3 uM, […], § variability observed) was “YES”, the “Activity, HAEC/ALI (alpha variant)” value ([1]; 10 uM, […]) was “YES” and the “Log Viral Load Reduction (Compared to Virus Control and Background), HAEC/ALI (alpha variant)” value ([1]; 10 uM, […]) was 5.4 (+-1.5) log.
With Cc1c(O)cccc1C(=O)N[C@@H](CSc1ccccc1)[C@H](O)CN1C[C@H]2CCCC[C@H]2C[C@H]1C(=O)NC(C)(C)C [Nelfinavir, nelfinavir] the “Activity, HAEC/ALI (alpha variant)” value ([1]; 10 uM, […]) was “YES” and the “Log Viral Load Reduction (Compared to Virus Control and Background), HAEC/ALI (alpha variant)” value ([1]; 10 uM, […]) was 3.2 (+-1.4) log.
For CC(C)(C)[C@H](NC(=O)C(F)(F)F)C(=O)N1C[C@H]2[C@@H]([C@H]1C(=O)N[C@H](C#N)C[C@@H]1CCNC1=O)C2(C)C [Nirmatrelvir, nirmatrelvir], the “Log Viral Load Reduction (Compared to Virus Control and Background), HAEC/ALI (alpha variant)” value ([3]; 0.03 uM) is listed as -0.30 (+-0.41) log, the “Log Viral Load Reduction (Compared to Virus Control and Background), HAEC/ALI (alpha variant)” value ([3]; 0.1 uM) is listed as 1.9 (+-1.6) log and the “Activity, HAEC/ALI (alpha variant)” value ([3]; 0.1 uM, § variability observed) is listed as “YES”. For the same molecule, the “Activity, HAEC/ALI (alpha variant)” value ([3]; 1 uM) was “YES” and the “Log Viral Load Reduction (Compared to Virus Control and Background), HAEC/ALI (alpha variant)” value ([3]; 1 uM) was over 3.8 log.
In the case of CC(=O)Oc1ccccc1C(=O)Nc1ncc([N+](=O)[O-])s1 [Nitazoxanide, nitazoxanide], the “Activity, HAEC/ALI (BavPat variant)” value [2] is reported as “Yes” and the “Log Viral titer Reduction (Compared to Virus Control), HAEC/ALI (BavPat variant)” value [2] is reported as -1.59 (+-0.72) log.
For CC(=O)CCCCn1c(=O)c2c(ncn2C)n(C)c1=O [Pentoxyfilline, pentoxyfilline], the “Log Viral titer Reduction (Compared to Virus Control), HAEC/ALI (BavPat variant)” value ([2]; 10 uM, […]) was 0.17(+-0.32) log.
With CCCN(CCC)S(=O)(=O)c1ccc(C(=O)O)cc1 [Probenecid, probenecid] the “Log Viral Load Reduction (Compared to Virus Control and Background), HAEC/ALI (alpha variant)” value ([1]; 10 uM, […]) was 0.34 (+-1.0) log.
For CC1(C)C(=O)N(c2ccc(C#N)c(C(F)(F)F)c2F)C(=S)N1c1ccc(CCCc2ncco2)nc1 [Proxalutamide, proxalutamide], the “Log Viral titer Reduction (Compared to Virus Control), HAEC/ALI (BavPat variant)” value ([2]; 10 uM, […]) was 0.11 (+-0.6) log.
For CC(C)OC(=O)[C@H](C)N[P@](=O)(OC[C@H]1O[C@@H](n2ccc(=O)[nH]c2=O)[C@](C)(F)[C@@H]1O)Oc1ccccc1 [Sofosbuvir, sofosbuvir], the “Log Viral Load Reduction (Compared to Virus Control and Background), HAEC/ALI (alpha variant)” value ([1]; 10 uM, […]) was -0.56 (+-0.10) log.
For bemnifosbuvir, the “Log Viral titer Reduction (Compared to Virus Control), HAEC/ALI (BavPat variant)” value ([2]; 0.1 uM, […]) was -0.12 (+-0.4) log, the “Log Viral titer Reduction (Compared to Virus Control), HAEC/ALI (BavPat variant)” value ([2]; 0.3 uM, […]) was -0.38 (+-0.18) log and the “Log Viral Load Reduction (Compared to Virus Control and Background), HAEC/ALI (alpha variant)” value [1] was -0.35 (+-1.2) log.
With ivermectin the “Activity, HAEC/ALI (alpha variant)” value ([1]; 10 uM, […]) was “Toxic” and the “Log Viral Load Reduction (Compared to Virus Control and Background), HAEC/ALI (alpha variant)” value ([1]; 10 uM, […]) was over 4.09 log.
